Literature values in patent US20240238194A1, “ORODISPERSIBLE EFFERVESCENT TABLET COMPRISING BUDESONIDE FOR USE IN THE TREATMENT OF EOSINOPHILIC ESOPHAGITIS” (Dr. Falk Pharma GmbH, priority 2021, published 2024).

Settings: in vivo

mucosal medication contact time, measured by scintigraphy: higher
Substance: budesonide [OVB]
